Earlier results on three molecules are cited in patent publication US10024846B2, “Methods for treating diet-induced obesity by decreasing or inhibiting P2Y2 purinergic receptor expression or activity” (The United States of America as represented by the …, priority 2012, dated 2018).

Usually IC50 stands for the point on the concentration scale where inhibition reaches its midpoint.

In one data set the target is P2Y2 receptor. Particulars: competitive P2Y2 receptor antagonists; values from cited literature.
For another data set, the target named is human P2Y4 receptor (Homo sapiens, UniProt P51582). The note with it: Herold et al. 2004.
The next data set addresses rat P2Y4 receptor (Rattus norvegicus, UniProt O35811). Particulars: Herold et al. 2004.

rat P2Y4 receptor, sequence (O35811 whole entry): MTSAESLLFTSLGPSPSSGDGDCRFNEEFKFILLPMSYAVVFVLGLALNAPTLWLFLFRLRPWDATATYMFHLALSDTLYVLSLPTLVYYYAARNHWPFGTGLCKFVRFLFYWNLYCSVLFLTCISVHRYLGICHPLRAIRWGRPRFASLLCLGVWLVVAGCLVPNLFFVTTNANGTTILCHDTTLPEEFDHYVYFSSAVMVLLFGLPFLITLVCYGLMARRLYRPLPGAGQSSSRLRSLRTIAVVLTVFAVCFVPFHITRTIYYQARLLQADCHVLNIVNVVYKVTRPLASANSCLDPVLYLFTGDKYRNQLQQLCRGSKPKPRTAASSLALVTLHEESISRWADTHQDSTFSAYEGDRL
human P2Y4 receptor, sequence (P51582 whole entry): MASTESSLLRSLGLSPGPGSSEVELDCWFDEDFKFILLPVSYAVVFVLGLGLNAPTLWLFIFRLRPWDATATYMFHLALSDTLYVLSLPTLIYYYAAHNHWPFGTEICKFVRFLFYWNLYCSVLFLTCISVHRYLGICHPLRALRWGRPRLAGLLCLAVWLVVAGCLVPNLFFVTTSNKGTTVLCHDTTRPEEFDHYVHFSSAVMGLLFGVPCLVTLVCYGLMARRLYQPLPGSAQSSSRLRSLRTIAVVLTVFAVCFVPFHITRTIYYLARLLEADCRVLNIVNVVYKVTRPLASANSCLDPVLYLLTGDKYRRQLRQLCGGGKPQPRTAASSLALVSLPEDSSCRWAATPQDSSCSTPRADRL

With `Cc1ccc2c(c1)C=Cc1cc(C)ccc1C2c1cn(Cc2ccc(C(=O)Nc3nnn[nH]3)o2)c(=O)[nH]c1=S` [AR-C118925], the IC50 on P2Y2 receptor is approximately 6 µM.

In the case of `Cn1cc(C2c3ccc(Cl)cc3C=Cc3scnc32)c(=S)[nH]c1=O` (stereo not shown) [AR-C126313], at P2Y2 receptor, the IC50 was approximately 6 µM.

Take `Nc1ncnc2c1ncn2[C@@H]1O[C@H](COP(=O)(O)OP(=O)(O)OP(=O)(O)O)[C@@H](O)[C@H]1O` [ATP]: the entries for the “agonist versus antagonist action at the P2Y4 receptor” value at human P2Y4 receptor and on rat P2Y4 receptor were “potent competitive antagonist” and “potent full agonist”, respectively.
